Data as given in PMC7354229 (ACS infectious diseases, 2020).
Read-outs that look alike come from different tables or passages of the source.

What was measured:
Assay type in all cases: cell-based, Staphylococcus aureus
S. aureus = test: Growth inhibition in 100% TSB
[1] = test system: S. aureus JE2 transposon mutants; conditions: peptide at 1.56 μM, propidium iodide
[2] = test system: S. aureus JE2 transposon mutant SAUSA300_1962; test: MIC ratio WT/mutant
[3] = test system: S. aureus JE2 transposon mutant SAUSA300_1465; test: MIC ratio WT/mutant
[4] = test system: S. aureus JE2 transposon mutant SAUSA300_1503
[5] = test system: S. aureus JE2 transposon mutant SAUSA300_0647 (vraF); test: MIC ratio WT/mutant
[6] = test system: S. aureus JE2 transposon mutant SAUSA300_1037 (pheS); test: MIC ratio WT/mutant
[7] = test system: S. aureus JE2 transposon mutant SAUSA300_1255 (mprF); test: MIC ratio WT/mutant
[8] = test system: S. aureus JE2 transposon mutant SAUSA300_1336
[9] = test system: S. aureus JE2 transposon mutant SAUSA300_1898
[10] = test system: S. aureus JE2 transposon mutant SAUSA300_0646 (graS); test: MIC ratio WT/mutant
[11] = test system: S. aureus JE2 transposon mutant SAUSA300_1036
[12] = test system: S. aureus JE2 transposon mutant SAUSA300_0988 (trkA); test: MIC ratio WT/mutant
[13] = test system: S. aureus JE2 transposon mutant SAUSA300_1867; test: MIC ratio WT/mutant
[14] = test system: S. aureus JE2 transposon mutant SAUSA300_0186 (argC)
[15] = test system: S. aureus JE2 transposon mutant SAUSA300_1967
[16] = test system: S. aureus JE2 transposon mutant SAUSA300_0829 (lipA); test: MIC ratio WT/mutant

Compound	Inhibition of S. aureus growth (S. aureus)	Membrane permeability of mutant relative to JE2 ([1]; mutant SAUSA300_0646)	Membrane permeability of mutant relative to JE2 ([1]; mutants SAUSA300_0186, 0829, 1089, 1097, 1220, 1228, 1515, 1865, 1867, 1962 and 1967)	Membrane permeability of mutant relative to JE2 ([1]; mutants SAUSA300_0645, 0647 and 1503)	Membrane permeability of mutant relative to JE2 ([1]; mutants SAUSA300_1036, 1037 and 1255)	Fold decrease of MIC (MIC ratio WT / mutant) [2]	Fold decrease of MIC (MIC ratio WT / mutant) [3] [fold]	Fold decrease of MIC (MIC ratio WT / mutant) [4] [fold]	Fold decrease of MIC (MIC ratio WT / mutant) [5]	Fold decrease of MIC (MIC ratio WT / mutant) [6]	Fold decrease of MIC (MIC ratio WT / mutant) [7] [fold]	Fold decrease of MIC (MIC ratio WT / mutant) [8] [fold]	Fold decrease of MIC (MIC ratio WT / mutant) [9] [fold]	Fold decrease of MIC (MIC ratio WT / mutant) [10]	Fold decrease of MIC (MIC ratio WT / mutant) [11] [fold]	Fold decrease of MIC (MIC ratio WT / mutant) [12] [fold]	Fold decrease of MIC (MIC ratio WT / mutant) [13] [fold]	Fold decrease of MIC (MIC ratio WT / mutant) [14] [fold]	Fold decrease of MIC (MIC ratio WT / mutant) [15] [fold]	Fold decrease of MIC (MIC ratio WT / mutant) [16] [fold]
CC[C@H](C)[C@H](NC(=O)[C@H](CCCCN)NC(=O)[C@H](CCC(=O)O)NC(=O)[C@H](CCCCN)NC(=O)[C@H](CO)NC(=O)[C@H](CCCCN)NC(=O)[C@H](CCCNC(=N)N)NC(=O)[C@H](Cc1ccccc1)NC(=O)[C@H](Cc1ccccc1)NC(=O)[C@H](CC(=O)O)NC(=O)CNC(=O)[C@H](CC(C)C)NC(=O)[C@@H](N)CC(C)C)C(=O)NCC(=O)N[C@@H](CCCCN)C(=O)N[C@@H](CCC(=O)O)C(=O)N[C@@H](Cc1ccccc1)C(=O)N[C@@H](CCCCN)C(=O)N[C@@H](CCCNC(=N)N)C(=O)N[C@H](C(=O)N[C@H](C(=O)N[C@@H](CCC(N)=O)C(=O)N[C@@H](CCCNC(=N)N)C(=O)N[C@H](C(=O)N[C@@H](CCCCN)C(=O)N[C@@H](CC(=O)O)C(=O)N[C@@H](Cc1ccccc1)C(=O)N[C@@H](CC(C)C)C(=O)N[C@@H](CCCNC(=N)N)C(=O)N[C@@H](CC(N)=O)C(=O)N[C@@H](CC(C)C)C(=O)N[C@H](C(=O)N1CCC[C@H]1C(=O)N[C@@H](CCCNC(=N)N)C(=O)N[C@H](C(=O)N[C@@H](CCC(=O)O)C(=O)N[C@@H](CO)C(=O)O)[C@@H](C)O)C(C)C)[C@@H](C)CC)C(C)C)[C@@H](C)CC [LL-37]	did not inhibit	less permeable	essentially no differences	slightly more permeable	clearly more permeable than JE2	–	–	–	–	–	–	–	–	–	–	–	–	–	–	–
CC(=O)NC[C@H]1CN(c2ccc(N3CCOCC3)c(F)c2)C(=O)O1 [Linez, linezolid]	–	–	–	–	–	2–4 fold	6	2	6 fold	2 fold	–	–	–	–	–	–	–	–	–	–
CN(C)c1cc(NC(=O)CNC(C)(C)C)c(O)c2c1C[C@H]1C[C@H]3[C@H](N(C)C)C(O)=C(C(N)=O)C(=O)[C@@]3(O)C(O)=C1C2=O [Tige, tigecycline]	–	–	–	–	–	4 fold	6	2	2 fold	2–4 fold	2	2	2	2 fold	2	2	2	2	2	2
NC[C@H]1O[C@H](O[C@H]2[C@H](O)[C@@H](O[C@H]3O[C@H](CO)[C@@H](O)[C@H](N)[C@H]3O)[C@H](N)C[C@@H]2N)[C@H](N)C[C@@H]1O [Tobra, tobramycin]	–	–	–	–	–	2 fold	4	–	2 fold	4 fold	4	–	–	–	–	–	–	–	–	–
CN[C@H](CC(C)C)C(=O)N[C@H]1C(=O)N[C@@H](CC(N)=O)C(=O)N[C@H]2C(=O)N[C@H]3C(=O)N[C@H](C(=O)N[C@H](C(=O)O)c4cc(O)cc(O)c4-c4cc3ccc4O)[C@H](O)c3ccc(c(Cl)c3)Oc3cc2cc(c3O[C@@H]2O[C@H](CO)[C@@H](O)[C@H](O)[C@H]2O[C@H]2C[C@](C)(N)[C@H](O)[C@H](C)O2)Oc2ccc(cc2Cl)[C@H]1O [Van, vancomycin]	–	–	–	–	–	2 fold	4	–	2–4 fold	4 fold	2	–	–	2–4 fold	–	–	2	–	–	–
